Experimental data from PubChem BioAssay AID256 (DTP/NCI, 2004).
Toxic doses and inconclusive results are not listed. How the source made its calls: active means survival T/C of 150% or more; inactive means T/C below 125% in these data.

Tested on: CD2F1 mice, L1210 leukemia ip, survival T/C
Test: NCI In Vivo Anticancer Drug Screen. Data for tumor model L1210 Leukemia (intraperitoneal) in CD2F1 (CDF1) mice
Details: higher = longer survival
Summary of the method: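 Antitumor effect is scored in animals hosting a serially transplanted tumor. Values compare compound-dosed animals against vehicle-only controls as a simple quotient.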

[1] = endpoint: mean survival time, dose: 100.0 mg/kg/injection, schedule: Q04DX003 (ip), vehicle: saline with Tween-80
[2] = endpoint: mean survival time, dose: 200.0 mg/kg/injection, schedule: Q04DX003 (ip), vehicle: saline with Tween-80
[3] = endpoint: mean survival time, dose: 100.0 mg/kg/injection, schedule: Q04DX002 (ip), vehicle: saline with Tween-80
[4] = endpoint: mean survival time, dose: 400.0 mg/kg/injection, schedule: Q04DX003 (ip), vehicle: saline with Tween-80

Measured: T/C

COC(=O)c1ccc(O)c([N+](=O)[O-])c1
inactive: [1] 104 % of control | [2] 93 % of control

CN(C)C(=O)SC1=C(c2c(Cl)cccc2Cl)C(=O)c2ccccc21
inactive: endpoint: median survival time, dose: 25.0 mg/kg/injection, schedule: Q01DX009 (ip), vehicle: Klucel (hydroxypropylcellulose) (HPC) 112 % of control | endpoint: median survival time, dose: 50.0 mg/kg/injection, schedule: Q01DX009 (ip), vehicle: Klucel (hydroxypropylcellulose) (HPC) 112 % of control | endpoint: median survival time, dose: 100.0 mg/kg/injection, schedule: Q01DX009 (ip), vehicle: Klucel (hydroxypropylcellulose) (HPC) 104 % of control | endpoint: median survival time, dose: 200.0 mg/kg/injection, schedule: Q01DX009 (ip), vehicle: Klucel (hydroxypropylcellulose) (HPC) 101 % of control | endpoint: median survival time, dose: 400.0 mg/kg/injection, schedule: Q01DX009 (ip), vehicle: Klucel (hydroxypropylcellulose) (HPC) 108 % of control

COC(=O)c1ccccc1I
inactive: [3] 107 % of control | endpoint: mean survival time, dose: 200.0 mg/kg/injection, schedule: Q04DX002 (ip), vehicle: saline with Tween-80 96 % of control | endpoint: mean survival time, dose: 400.0 mg/kg/injection, schedule: Q04DX002 (ip), vehicle: saline with Tween-80 107 % of control

NNC(=S)NC1CC2C=CC1C2 (stereo unspecified)
inactive: endpoint: mean survival time, dose: 6.25 mg/kg/injection, schedule: Q04DX003 (ip), vehicle: saline with Tween-80 95 % of control | endpoint: mean survival time, dose: 12.5 mg/kg/injection, schedule: Q04DX003 (ip), vehicle: saline with Tween-80 95 % of control | endpoint: mean survival time, dose: 25.0 mg/kg/injection, schedule: Q04DX003 (ip), vehicle: saline with Tween-80 97 % of control

Cc1c(Cl)cccc1NC(=O)c1ccc([N+](=O)[O-])cc1
inactive: [1] 95 % of control | [2] 101 % of control | [4] 86 % of control

[O-][n+]1cc(N=Nc2ccc(Cl)cc2)nn1-c1ccc(Cl)cc1
inactive: endpoint: mean survival time, dose: 400.0 mg/kg/injection, schedule: Q01DX001 (ip), vehicle: saline 86 % of control

COc1cc(C)c2c(c1C=O)Oc1c(c(C)c(O)c3c1C(O)OC3=O)OC2=O (stereo unspecified)
inactive: endpoint: mean survival time, dose: 3.12 mg/kg/injection, schedule: Q01DX009 (ip), vehicle: saline 94 % of control | endpoint: mean survival time, dose: 6.25 mg/kg/injection, schedule: Q01DX009 (ip), vehicle: saline 92 % of control | endpoint: mean survival time, dose: 12.5 mg/kg/injection, schedule: Q01DX009 (ip), vehicle: saline 100 % of control | endpoint: mean survival time, dose: 25.0 mg/kg/injection, schedule: Q01DX009 (ip), vehicle: saline 92 % of control | endpoint: mean survival time, dose: 50.0 mg/kg/injection, schedule: Q01DX009 (ip), vehicle: saline 97 % of control

O=S1CCCO1 (stereo unspecified)
inactive: endpoint: mean survival time, dose: 18.8 mg/kg/injection, schedule: Q04DX003 (ip), vehicle: saline 101 % of control

CC(=O)OCC1OC(n2cnc3c(Cl)ncnc32)C(OC(C)=O)C1OC(C)=O (stereo unspecified)
inactive: endpoint: mean survival time, dose: 12.5 mg/kg/injection, schedule: Q01DX005 (ip), vehicle: other 94 % of control | endpoint: mean survival time, dose: 25.0 mg/kg/injection, schedule: Q01DX005 (ip), vehicle: other 88 % of control | endpoint: mean survival time, dose: 50.0 mg/kg/injection, schedule: Q01DX005 (ip), vehicle: other 98 % of control | endpoint: mean survival time, dose: 100.0 mg/kg/injection, schedule: Q01DX005 (ip), vehicle: other 96 % of control | endpoint: mean survival time, dose: 200.0 mg/kg/injection, schedule: Q01DX005 (ip), vehicle: other 100 % of control | endpoint: mean survival time, dose: 400.0 mg/kg/injection, schedule: Q01DX005 (ip), vehicle: other 102 % of control

CC1CCC(C)(C)CC1(C)c1cc(CN(C)C)c(O)c(CN(C)C)c1 (stereo unspecified)
inactive: endpoint: mean survival time, dose: 12.5 mg/kg/injection, schedule: Q01DX009 (ip), vehicle: acetone 95 % of control | endpoint: mean survival time, dose: 25.0 mg/kg/injection, schedule: Q01DX009 (ip), vehicle: acetone 98 % of control | endpoint: mean survival time, dose: 50.0 mg/kg/injection, schedule: Q01DX009 (ip), vehicle: acetone 98 % of control

O=C(NC1c2ccccc2-c2ccccc21)C(F)(F)F
inactive: endpoint: mean survival time, dose: 100.0 mg/kg/injection, schedule: Q01DX009 (ip), vehicle: saline with Tween-80 96 % of control | [1] 99 % of control | endpoint: mean survival time, dose: 200.0 mg/kg/injection, schedule: Q01DX009 (ip), vehicle: saline with Tween-80 97 % of control | [2] 99 % of control | endpoint: mean survival time, dose: 400.0 mg/kg/injection, schedule: Q01DX009 (ip), vehicle: saline with Tween-80 100 % of control | [4] 97 % of control

CCOC(=O)C1C2CCC(O2)C1C#N (stereo unspecified)
inactive: endpoint: mean survival time, dose: 25.0 mg/kg/injection, schedule: Q04DX002 (ip), vehicle: saline with Tween-80 98 % of control | endpoint: mean survival time, dose: 50.0 mg/kg/injection, schedule: Q04DX002 (ip), vehicle: saline with Tween-80 98 % of control | [3] 98 % of control

NC(=O)C(CO)NC(=O)OCc1ccccc1 (stereo unspecified)
inactive: endpoint: mean survival time, dose: 25.0 mg/kg/injection, schedule: Q01DX005 (ip), vehicle: water 103 % of control | endpoint: mean survival time, dose: 50.0 mg/kg/injection, schedule: Q01DX005 (ip), vehicle: water 104 % of control | endpoint: mean survival time, dose: 100.0 mg/kg/injection, schedule: Q01DX005 (ip), vehicle: water 95 % of control | endpoint: mean survival time, dose: 200.0 mg/kg/injection, schedule: Q01DX005 (ip), vehicle: water 97 % of control | endpoint: mean survival time, dose: 400.0 mg/kg/injection, schedule: Q01DX005 (ip), vehicle: water 93 % of control
